Molecular target: human Gal-3 (hGal-3) (Homo sapiens (Human), UniProt P17931)
Assay: competitive binding assay: binding of biotinylated hGal-3 to microplate-adsorbed asialofetuin (ASF), spectrophotometric
Settings: Activity on hGal-3; mean values of several measurements
Procedure: Evaluation of Compound Inhibitory Activity (IC50)
The inhibitory activity of compounds is determined in competitive binding assays. This spectrophotometric assay measures the binding of biotinylated human Gal-3 (hGal-3) or human Gal-1 (hGal-1), respectively, to a microplate-adsorbed glycoprotein, asialofetuin (ASF) (Proc Natl Acad Sci USA. 2013 Mar. 26; 110(13):5052-7.). Alternatively, and preferably, a human Gal-1 version in which all six cysteines are substituted by serines may be used.
Briefly, compounds are serially diluted in DMSO (working dilutions). ASF-coated 384 well plates are supplemented with 22.8 μL/well of biotinylated hGal-3 or hGal-1 in assay buffer (i.e. 300-1000 ng/mL biotinylated hGal-3 or hGal-1) to which 1.2 μL of compound working dilutions are added and mixed.
Plates are incubated for 3 hours at 4° C., then washed with cold assay buffer (3×50 uL), incubated for 1 hour with 25 μL/well of a streptavidin-peroxidase solution (diluted in assay buffer to 80 ng/mL) at 4° C., followed by further washing steps with assay buffer (3×50 uL). Finally, 25 μL/well of ABTS substrate is added.
The calculated IC50 values may fluctuate depending on the daily assay performance. Fluctuations of this kind are known to those skilled in the art. IC50 values from several measurements are given as mean values.

human Gal-3 (hGal-3), sequence (P17931 whole entry): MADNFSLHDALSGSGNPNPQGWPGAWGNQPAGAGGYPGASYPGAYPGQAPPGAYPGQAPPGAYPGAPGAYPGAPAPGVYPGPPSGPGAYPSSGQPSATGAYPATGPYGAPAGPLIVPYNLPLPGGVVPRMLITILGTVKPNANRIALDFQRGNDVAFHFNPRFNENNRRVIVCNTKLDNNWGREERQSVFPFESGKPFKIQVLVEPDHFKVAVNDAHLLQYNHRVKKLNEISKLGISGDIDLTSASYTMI

**Q.** `CO[C@@H]1[C@@H](n2cc(-c3cc(F)cc(Cl)c3)nn2)[C@@H](O)[C@@H](CO)O[C@H]1C(=O)N(c1cc(Br)cc(C#N)c1)[C@H]1CCC[C@@H]1O` [Example 1.9.5, (2R,3R,4S,5R,6R)-N-(3-bromo-5-cyanophenyl)-4-(4-(3-chloro-5-fluorophenyl)-1H-1,2,3-triazol-1-yl)-5-hydroxy-N-((1S,2S)-2-hydroxycyclopentyl)-6-(hydroxymethyl)-3-methoxytetrahydro-2H-pyran-2-carboxamide] was tested. Which IC50 did it give?
**A.** Its IC50 is 22.9 nM.

**Q.** Which IC50 does the source give for `COc1cc(-c2cn([C@H]3[C@@H](O)[C@@H](CO)O[C@@H](C(=O)N(c4cc(Br)cc(C#N)c4)[C@H]4CCC[C@@H]4O)[C@@H]3OC)nn2)cc(F)c1F` [Example 1.3.5, (2R,3R,4S,5R,6R)-N-(3-bromo-5-cyanophenyl)-4-(4-(3,4-difluoro-5-methoxyphenyl)-1H-1,2,3-triazol-1-yl)-5-hydroxy-N-((1S,2S)-2-hydroxycyclopentyl)-6-(hydroxymethyl)-3-methoxytetrahydro-2H-pyran-2-carboxamide] here?
**A.** The IC50 was 25.4 nM.

**Q.** How did the IC50 turn out when `CO[C@@H]1[C@@H](n2cc(-c3ccc(F)c(F)c3F)nn2)[C@@H](O)[C@@H](CO)O[C@H]1C(=O)N(c1cc(Br)cc(C#N)c1)[C@H]1CCC[C@@H]1O` [Example 1.20.5, (2R,3R,4S,5R,6R)-N-(3-bromo-5-cyanophenyl)-5-hydroxy-N-((1S,2S)-2-hydroxycyclopentyl)-6-(hydroxymethyl)-3-methoxy-4-(4-(2,3,4-trifluorophenyl)-1H-1,2,3-triazol-1-yl)tetrahydro-2H-pyran-2-carboxamide] was run?
**A.** The IC50 was 28.7 nM.

**Q.** With `CO[C@@H]1[C@@H](n2cc(-c3ccc(Cl)c(Cl)c3)nn2)[C@@H](O)[C@@H](CO)O[C@H]1C(=O)N(c1cc(Cl)cc(C#N)c1)[C@H]1CC[C@@H]1O` [Example 2.8.4, (2R,3R,4S,5R,6R)-N-(3-chloro-5-cyanophenyl)-4-(4-(3,4-dichlorophenyl)-1H-1,2,3-triazol-1-yl)-5-hydroxy-N-((1S,2S)-2-hydroxycyclobutyl)-6-(hydroxymethyl)-3-methoxytetrahydro-2H-pyran-2-carboxamide] as the compound, how does the IC50 read?
**A.** Its IC50 is 131 nM.

**Q.** With `CO[C@@H]1[C@@H](n2cc(-c3ccc(Br)c(F)c3F)nn2)[C@@H](O)[C@@H](CO)O[C@H]1C(=O)N(c1cc(Br)cc(C#N)c1)[C@H]1CCC[C@@H]1O` [Example 1.12.5, (2R,3R,4S,5R,6R)-4-(4-(4-bromo-2,3-difluorophenyl)-1H-1,2,3-triazol-1-yl)-N-(3-bromo-5-cyanophenyl)-5-hydroxy-N-((1S,2S)-2-hydroxycyclopentyl)-6-(hydroxymethyl)-3-methoxytetrahydro-2H-pyran-2-carboxamide] as the compound, how does the IC50 read?
**A.** The IC50 was 13.6 nM.

**Q.** Which IC50 does the source give for `CO[C@@H]1[C@@H](n2cc(-c3cccc(F)c3)nn2)[C@@H](O)[C@@H](CO)O[C@H]1C(=O)N(c1cc(Br)cc(C#N)c1)[C@H]1CCC[C@@H]1O` [Example 1.15.5, (2R,3R,4S,5R,6R)-N-(3-bromo-5-cyanophenyl)-4-(4-(3-fluorophenyl)-1H-1,2,3-triazol-1-yl)-5-hydroxy-N-((1S,2S)-2-hydroxycyclopentyl)-6-(hydroxymethyl)-3-methoxytetrahydro-2H-pyran-2-carboxamide] here?
**A.** The IC50 was 66 nM.

**Q.** `CO[C@@H]1[C@@H](n2cc(-c3cccc(F)c3)nn2)[C@@H](O)[C@@H](CO)O[C@H]1C(=O)N(c1cc(Cl)cc(C#N)c1)[C@H]1CCC[C@@H]1O` [Example 1.15.4, (2R,3R,4S,5R,6R)-N-(3-chloro-5-cyanophenyl)-4-(4-(3-fluorophenyl)-1H-1,2,3-triazol-1-yl)-5-hydroxy-N-((1S,2S)-2-hydroxycyclopentyl)-6-(hydroxymethyl)-3-methoxytetrahydro-2H-pyran-2-carboxamide] was tested. Which IC50 did it give?
**A.** Its IC50 is 54 nM.

**Q.** How did the IC50 turn out when `CO[C@@H]1[C@@H](n2cc(-c3ccc(Br)c(F)c3F)nn2)[C@@H](O)[C@@H](CO)O[C@H]1C(=O)N(c1cc(Cl)cc(C#N)c1)[C@H]1CCC[C@@H]1O` [Example 1.12.4, (2R,3R,4S,5R,6R)-4-(4-(4-bromo-2,3-difluorophenyl)-1H-1,2,3-triazol-1-yl)-N-(3-chloro-5-cyanophenyl)-5-hydroxy-N-((1S,2S)-2-hydroxycyclopentyl)-6-(hydroxymethyl)-3-methoxytetrahydro-2H-pyran-2-carboxamide] was run?
**A.** The IC50 was 21.7 nM.

**Q.** With `CO[C@@H]1[C@@H](n2cc(-c3ccc(Br)c(F)c3F)nn2)[C@@H](O)[C@@H](CO)O[C@H]1C(=O)N(c1cc(F)cc(C#N)c1)[C@H]1CCC[C@@H]1O` [Example 1.12.7, (2R,3R,4S,5R,6R)-4-(4-(4-bromo-2,3-difluorophenyl)-1H-1,2,3-triazol-1-yl)-N-(3-cyano-5-fluorophenyl)-5-hydroxy-N-((1S,2S)-2-hydroxycyclopentyl)-6-(hydroxymethyl)-3-methoxytetrahydro-2H-pyran-2-carboxamide] as the compound, how does the IC50 read?
**A.** The IC50 was 21.2 nM.

**Q.** How did the IC50 turn out when `COc1cc(C#N)cc(N(C(=O)[C@@H]2O[C@H](CO)[C@H](O)[C@H](n3cc(-c4cc(F)cc(Br)c4)nn3)[C@H]2OC)[C@@H]2CC[C@H]2O)c1` [Example 2.10.9R, (2R,3R,4S,5R,6R)-4-(4-(3-bromo-5-fluorophenyl)-1H-1,2,3-triazol-1-yl)-N-(3-cyano-5-methoxyphenyl)-5-hydroxy-N-((1R,2R)-2-hydroxycyclobutyl)-6-(hydroxymethyl)-3-methoxytetrahydro-2H-pyran-2-carboxamide] was run?
**A.** The IC50 was 976 nM.

**Q.** Which IC50 does the source give for `CO[C@@H]1[C@@H](n2cc(-c3cc(F)c(F)c(F)c3)nn2)[C@@H](O)[C@@H](CO)O[C@H]1C(=O)N(c1cc(Cl)cc(C#N)c1)[C@@H]1CC[C@H]1O` [Example 2.1.4R, (2R,3R,4S,5R,6R)-N-(3-chloro-5-cyanophenyl)-5-hydroxy-N-((1R,2R)-2-hydroxycyclobutyl)-6-(hydroxymethyl)-3-methoxy-4-(4-(3,4,5-trifluorophenyl)-1H-1,2,3-triazol-1-yl)tetrahydro-2H-pyran-2-carboxamide] here?
**A.** Its IC50 is 390 nM.

**Q.** `N#Cc1cc(Cl)cc(N(C(=O)[C@@H]2O[C@H](CO)[C@H](O)[C@H](n3cc(-c4cc(F)c(F)c(F)c4)nn3)[C@H]2O)[C@H]2CC[C@@H]2O)c1` [Example 2H.1.4, (2R,3R,4S,5R,6R)-N-(3-chloro-5-cyanophenyl)-3,5-dihydroxy-N-((1S,2S)-2-hydroxycyclobutyl)-6-(hydroxymethyl)-4-(4-(3,4,5-trifluorophenyl)-1H-1,2,3-triazol-1-yl)tetrahydro-2H-pyran-2-carboxamide] was tested. Which IC50 did it give?
**A.** Its IC50 is 33.8 nM.

**Q.** With `CO[C@@H]1[C@@H](n2cc(-c3cc(F)cc(Br)c3)nn2)[C@@H](O)[C@@H](CO)O[C@H]1C(=O)N(c1cc(Cl)cc(C#N)c1)[C@@H]1CCC[C@H]1O` [Example 1.10.4R, (2R,3R,4S,5R,6R)-4-(4-(3-bromo-5-fluorophenyl)-1H-1,2,3-triazol-1-yl)-N-(3-chloro-5-cyanophenyl)-5-hydroxy-N-((1R,2R)-2-hydroxycyclopentyl)-6-(hydroxymethyl)-3-methoxytetrahydro-2H-pyran-2-carboxamide] as the compound, how does the IC50 read?
**A.** The IC50 was 699 nM.

**Q.** How did the IC50 turn out when `COc1cc(C#N)cc(N(C(=O)[C@@H]2O[C@H](CO)[C@H](O)[C@H](n3cc(-c4ccc(C#N)c(F)c4)nn3)[C@H]2OC)[C@@H]2CCC[C@H]2O)c1` [Example 1.16.9R, (2R,3R,4S,5R,6R)-4-(4-(4-cyano-3-fluorophenyl)-1H-1,2,3-triazol-1-yl)-N-(3-cyano-5-methoxyphenyl)-5-hydroxy-N-((1R,2R)-2-hydroxycyclopentyl)-6-(hydroxymethyl)-3-methoxytetrahydro-2H-pyran-2-carboxamide] was run?
**A.** The IC50 was 1460 nM.

**Q.** Which IC50 does the source give for `CO[C@@H]1[C@@H](n2cc(-c3ccc(C)c(F)c3F)nn2)[C@@H](O)[C@@H](CO)O[C@H]1C(=O)N(c1cc(Cl)cc(Cl)c1)[C@@H]1CC[C@H]1O` [Example 2.11.2R, (2R,3R,4S,5R,6R)-N-(3,5-dichlorophenyl)-4-(4-(2,3-difluoro-4-methylphenyl)-1H-1,2,3-triazol-1-yl)-5-hydroxy-N-((1R,2R)-2-hydroxycyclobutyl)-6-(hydroxymethyl)-3-methoxytetrahydro-2H-pyran-2-carboxamide] here?
**A.** The IC50 was 74.8 nM.

**Q.** Which IC50 does the source give for `CO[C@@H]1[C@@H](n2cc(-c3cc(F)c(Cl)c(Cl)c3)nn2)[C@@H](O)[C@@H](CO)O[C@H]1C(=O)N(c1cc(Cl)cc(C#N)c1)[C@@H]1CCC[C@H]1O` [Example 1.17.4R, (2R,3R,4S,5R,6R)-N-(3-chloro-5-cyanophenyl)-4-(4-(3,4-dichloro-5-fluorophenyl)-1H-1,2,3-triazol-1-yl)-5-hydroxy-N-((1R,2R)-2-hydroxycyclopentyl)-6-(hydroxymethyl)-3-methoxytetrahydro-2H-pyran-2-carboxamide] here?
**A.** The IC50 was 238 nM.

**Q.** `CO[C@@H]1[C@@H](n2cc(-c3ccc(Br)cc3)nn2)[C@@H](O)[C@@H](CO)O[C@H]1C(=O)N(c1cc(Cl)cc(C#N)c1)[C@H]1CCC[C@@H]1O` [Example 1.19.4, (2R,3R,4S,5R,6R)-4-(4-(4-bromophenyl)-1H-1,2,3-triazol-1-yl)-N-(3-chloro-5-cyanophenyl)-5-hydroxy-N-((1S,2S)-2-hydroxycyclopentyl)-6-(hydroxymethyl)-3-methoxytetrahydro-2H-pyran-2-carboxamide] was tested. Which IC50 did it give?
**A.** Its IC50 is 163 nM.

**Q.** With `CO[C@@H]1[C@@H](n2cc(-c3cc(F)c(F)c(F)c3)nn2)[C@@H](O)[C@@H](CO)O[C@H]1C(=O)N(c1cc(Cl)cc(Cl)c1)[C@H]1CCC[C@@H]1O` [Example 1.1.2, (2R,3R,4S,5R,6R)-N-(3,5-dichlorophenyl)-5-hydroxy-N-((1S,2S)-2-hydroxycyclopentyl)-6-(hydroxymethyl)-3-methoxy-4-(4-(3,4,5-trifluorophenyl)-1H-1,2,3-triazol-1-yl)tetrahydro-2H-pyran-2-carboxamide] as the compound, how does the IC50 read?
**A.** Its IC50 is 37.4 nM.

From patent publication US20230348442A1, “GALECTIN-3 INHIBITING 2-HYDROXYCYCLOALKANE-1-CARBAMOYL DERIVATIVES” (Idorsia Pharmaceuticals Ltd, priority 2020, published 2023)
